{
  "source": "patent US20250051327A1",
  "about": "“MALT-1 MODULATORS” (EXSCIENTIA AI LIMITED, priority 2020, published 2025)",
  "key": {"[1]": {"test_system": "IL-2 secretion by human effector memory T cells (TEM)", "experiment": "Effector memory T cells IL-2 release assay", "format": "cell-based", "details": "human CD4+ effector memory T cells, CD3/CD28 bead stimulation, 24 h, read-out: CD4TC IL2 IC50", "summary_of_the_method": "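Human CD4+ effector memory T cells from healthy-donor buffy coats were stimulated with anti-CD3/CD28 Dynabeads and exposed to 10 semi-log compound doses (0.1% DMSO) for 24 h at 37 °C. Supernatant IL-2 was measured by HTRF, and IC50 came from a 4-parameter logistic fit to maximal IL-2. Viability was checked by flow cytometry.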"}, "[2]": {"target": "Recombinant human MALT-1 (amino acids 340-824) (Homo sapiens (Human), UniProt Q9UDY8)", "sequence (Q9UDY8 340-824)": "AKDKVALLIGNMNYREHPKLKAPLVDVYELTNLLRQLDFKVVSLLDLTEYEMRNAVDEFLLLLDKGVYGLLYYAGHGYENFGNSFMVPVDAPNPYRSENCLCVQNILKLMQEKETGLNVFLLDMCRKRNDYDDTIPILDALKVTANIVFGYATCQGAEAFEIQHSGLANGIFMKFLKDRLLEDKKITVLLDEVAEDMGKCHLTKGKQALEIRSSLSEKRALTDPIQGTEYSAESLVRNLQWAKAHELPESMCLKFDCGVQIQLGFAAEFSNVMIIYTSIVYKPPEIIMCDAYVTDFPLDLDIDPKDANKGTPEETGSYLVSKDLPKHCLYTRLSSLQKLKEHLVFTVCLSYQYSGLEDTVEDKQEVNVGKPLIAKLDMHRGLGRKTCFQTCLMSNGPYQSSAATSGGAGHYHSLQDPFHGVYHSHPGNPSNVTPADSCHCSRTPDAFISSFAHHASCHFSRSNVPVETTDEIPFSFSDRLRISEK", "experiment": "MALT-1 inhibition assay (fluorogenic substrate Ac-LRSR-Rh110-DP)", "format": "biochemical", "details": "recombinant human MALT-1, substrate Ac-LRSR-Rh110-DP", "summary_of_the_method": "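MALT-1 at 3 nM final was reacted with 10 μM Ac-LRSR-Rh110-DP, with substrate addition starting the reaction. Incubation ran 60 minutes at 25° C in the dark. Percent inhibition from fluorescence across doses was fitted to a 4-parameter logistic to give IC50.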"}},
  "note": "Where two headings read alike, the source gives them in different places.",
  "data": [
    {"smiles": "C[C@H]1CCN(c2ccc([C@H](N(C)C(=O)[C@@H]3CCC(=O)NC3)C(F)(F)F)cc2)c2cnc3cc(Cl)nn3c21", "note": "(relative stereo) [CPD0074567, (3rel-R)-N-[(1S)-1-[4-[(13rel-S)-4-chloro-13-methyl-2,3,7,10-tetrazatricyclo[7.4.0.0^2,6]trideca-1(9),3,5,7-tetraen-10-yl]phenyl]-2,2,2-trifluoro-ethyl]-N-methyl-6-oxo-piperidine-3-carboxamide]", "values": [
      {"measurement": "IC50", "setting": "[1]; T-cell", "result": 87, "unit": "nM"},
      {"measurement": "IC50", "setting": "[2]", "result": 31, "unit": "nM"}
    ]},
    {"smiles": "Cc1cn2ncc(Nc3ccc([C@H](N(C)C(=O)C4CCS(=O)(=O)CC4)C(F)(F)F)cc3)cc2n1", "note": "[CPD0018617, N-methyl-1,1-dioxo-N-[(1S)-2,2,2-trifluoro-1-[4-({2-methylimidazo[1,2-b]pyridazin-7-yl}amino)phenyl]ethyl]-1λ^6-thiane-4-carboxamide]", "values": [
      {"measurement": "IC50", "setting": "[1]; T-cell", "result": 386, "unit": "nM"},
      {"measurement": "IC50", "setting": "[2]", "result": 598, "unit": "nM"}
    ]},
    {"smiles": "COc1ccc2ncc(Nc3ccc([C@H](N(C)C(=O)[C@@H]4CCN(C(=O)CO)C4)C(F)(F)F)cc3)c([C@H](C)OC)c2n1", "note": "(relative stereo) [CPD0075883, (3 rel R)-1-(2-hydroxyacetyl)-N-methyl-N-[(1S)-2,2,2-trifluoro-1-[4-[[6-methoxy-4-[(1 rel S-1-methoxyethyl]-1,5-naphthyridin-3-yl]amino]phenyl]ethyl]pyrrolidine-3-carboxamide]", "values": [
      {"measurement": "IC50", "setting": "[1]; T-cell", "result": 47, "unit": "nM"},
      {"measurement": "IC50", "setting": "[2]", "result": 52, "unit": "nM"}
    ]},
    {"smiles": "CN(C(=O)C[C@H]1CCS(=O)(=O)C1)[C@@H](c1ccc(N2CCCc3c2cnc2cc(Cl)nn32)cc1)C(F)(F)F", "note": "(relative stereo) [CPD0072799, N-[(1S)-1-(4-{4-chloro-2,3,7,10-tetraazatricyclo[7.4.0.0^2,6]trideca-1(9),3,5,7-tetraen-10-yl}phenyl)-2,2,2-trifluoroethyl]-2-[(3rel-S)-1,1-dioxo-1λ^6-thiolan-3-yl]-N-methylacetamide]", "values": [
      {"measurement": "IC50", "setting": "[1]; T-cell", "result": 178, "unit": "nM"},
      {"measurement": "IC50", "setting": "[2]", "result": 88, "unit": "nM"}
    ]},
    {"smiles": "CCN(C(=O)C1CCS(=O)(=O)CC1)[C@@H](c1ccc(N2CCCc3c2cnc2cc(Cl)nn32)cc1)C(F)(F)F", "note": "[CPD0073918, N-[(1S)-1-(4-{4-chloro-2,3,7,10-tetraazatricyclo[7.4.0.0^2,6]trideca-1(9),3,5,7-tetraen-10-yl}phenyl)-2,2,2-trifluoroethyl]-N-ethyl-1,1-dioxo-1λ^6-thiane-4-carboxamide]", "values": [
      {"measurement": "IC50", "setting": "[1]; T-cell", "result": 145, "unit": "nM"},
      {"measurement": "IC50", "setting": "[2]", "result": 106, "unit": "nM"}
    ]},
    {"smiles": "CN(C(=O)[C@@H]1CCS(=O)(=O)C1)[C@@H](c1ccc(N2CCCc3c2cnc2cc(Cl)nn32)cc1)C(F)(F)F", "note": "(relative stereo) [CPD0022135, (3rel-S)-N-[(1S)-1-(4-{4-chloro-2,3,7,10-tetraazatricyclo[7.4.0.0^2,6]trideca-1(9),3,5,7-tetraen-10-yl}phenyl)-2,2,2-trifluoroethyl]-N-methyl-1,1-dioxo-1λ^6-thiolane-3-carboxamide]", "values": [
      {"measurement": "IC50", "setting": "[1]; T-cell", "result": 95, "unit": "nM"},
      {"measurement": "IC50", "setting": "[2]", "result": 84, "unit": "nM"}
    ]},
    {"smiles": "CC(C)C(=O)N(C)[C@@H](c1ccc(N2CCCc3c2cnc2cc(Cl)nn32)cc1)C(F)(F)F", "note": "[CPD0019340, N-[(1S)-1-(4-{4-chloro-2,3,7,10-tetraazatricyclo[7.4.0.0^2,6]trideca-1(9),3,5,7-tetraen-10-yl}phenyl)-2,2,2-trifluoroethyl]-N,2-dimethylpropanamide]", "values": [
      {"measurement": "IC50", "setting": "[1]; T-cell", "result": 139, "unit": "nM"},
      {"measurement": "IC50", "setting": "[2]", "result": 130, "unit": "nM"}
    ]},
    {"smiles": "CN(C(=O)[C@H]1CNC(=O)C1)[C@@H](c1ccc(N2CCCc3c2cnc2cc(Cl)nn32)cc1)C(F)(F)F", "note": "(stereo in doubt) [CPD0073564, (3rel-R)—N-[(1S)-1-(4-{4-chloro-2,3,7,10-tetraazatricyclo[7.4.0.0^2,6]trideca-1(9),3,5,7-tetraen-10-v}phenyl)-2,2,2-trifluoroethyl]-N-methyl-5-oxopyrrolidine-3-carboxamide]", "values": [
      {"measurement": "IC50", "setting": "[1]; T-cell", "result": 250, "unit": "nM"},
      {"measurement": "IC50", "setting": "[2]", "result": 53, "unit": "nM"}
    ]},
    {"smiles": "CN(C(=O)[C@@H]1COC(=O)N1C)[C@@H](c1ccc(N2CCCc3c2cnc2cc(Cl)nn32)cc1)C(F)(F)F", "note": "(relative stereo) [CPD0073571, (4rel-S)-N-[(1S)-1-(4-{4-chloro-2,3,7,10-tetraazatricyclo[7.4.0.0^2,6]trideca-1(9),3,5,7-tetraen-10-yl}phenyl)-2,2,2-trifluoroethyl]-N,3-dimethyl-2-oxo-1,3-oxazolidine-4-carboxamide]", "values": [
      {"measurement": "IC50", "setting": "[1]; T-cell", "result": 153, "unit": "nM"},
      {"measurement": "IC50", "setting": "[2]", "result": 52, "unit": "nM"}
    ]},
    {"smiles": "COC(C)c1c(Nc2ccc([C@H](N(C)C(=O)C3CCS(=O)(=O)CC3)C(F)(F)F)cc2)cnn2cc(Cl)nc12", "note": "(stereo partly drawn) [CPD0072526, N-[(1S)-1-[4-[[2-chloro-8-(1-methoxyethyl)imidazo[1,2-b]pyridazin-7-yl]amino]phenyl]-2,2,2-trifluoro-ethyl]-N-methyl-1,1-dioxo-thiane-4-carboxamide]", "values": [
      {"measurement": "IC50", "setting": "[1]; T-cell", "result": 71, "unit": "nM"},
      {"measurement": "IC50", "setting": "[2]", "result": 47, "unit": "nM"}
    ]},
    {"smiles": "CN(C(=O)CC1CCOC1)[C@@H](c1ccc(N2CCCc3c2cnc2cc(Cl)nn32)cc1)C(F)(F)F", "note": "(stereo partly drawn) [CPD0021874, N-[(1S)-1-(4-{4-chloro-2,3,7,10-tetraazatricyclo[7.4.0.0^2,6]trideca-1(9),3,5,7-tetraen-10-yl}phenyl)-2,2,2-trifluoroethyl]-N-methyl-2-(oxolan-3-yl)acetamide]", "values": [
      {"measurement": "IC50", "setting": "[1]; T-cell", "result": 209, "unit": "nM"},
      {"measurement": "IC50", "setting": "[2]", "result": 256, "unit": "nM"}
    ]},
    {"smiles": "CN(C(=O)CC1CCCS1(=O)=O)[C@@H](c1ccc(N2CCCc3c2cnc2cc(Cl)nn32)cc1)C(F)(F)F", "note": "(stereo partly drawn) [CPD0021934, N-[(1S)-1-(4-{4-chloro-2,3,7,10-tetraazatricyclo[7.4.0.0^2,6]trideca-1(9),3,5,7-tetraen-10-yl}phenyl)-2,2,2-trifluoroethyl]-2-(1,1-dioxo-1λ^6-thiolan-2-yl)-N-methylacetamide]", "values": [
      {"measurement": "IC50", "setting": "[1]; T-cell", "result": 588, "unit": "nM"},
      {"measurement": "IC50", "setting": "[2]", "result": 369, "unit": "nM"}
    ]},
    {"smiles": "O=C(Nc1cnc(-n2nccn2)c(Cl)c1)c1cnn(-c2cccc3ncccc23)c1NCCCCl", "note": "[CPD0019183]", "values": [
      {"measurement": "IC50", "setting": "[1]; T-cell", "result": 10000, "unit": "nM"},
      {"measurement": "IC50", "setting": "[2]", "result": 464, "unit": "nM"}
    ]},
    {"smiles": "CN(C(=O)C1CC1)[C@@H](c1ccc(N2CCCc3c2cnc2cc(Cl)nn32)cc1)C(F)(F)F", "note": "[CPD0019354, N-[(1S)-1-(4-{4-chloro-2,3,7,10-tetraazatricyclo[7.4.0.0^2,6]trideca-1(9),3,5,7-tetraen-10-yl}phenyl)-2,2,2-trifluoroethyl]-N-methylcyclopropanecarboxamide]", "values": [
      {"measurement": "IC50", "setting": "[1]; T-cell", "result": 83, "unit": "nM"},
      {"measurement": "IC50", "setting": "[2]", "result": 164, "unit": "nM"}
    ]},
    {"smiles": "CN1C[C@@H](C(=O)N(C)[C@@H](c2ccc(N3CCCc4c3cnc3cc(Cl)nn43)cc2)C(F)(F)F)CCC1=O", "note": "(relative stereo) [CPD0073196, (3rel-S)-N-[(1S)-1-(4-{4-chloro-2,3,7,10-tetraazatricyclo[7.4.0.0^2,6]trideca-1(9),3,5,7-tetraen-10-yl}phenyl)-2,2,2-trifluoroethyl]-N,1-dimethyl-6-oxopiperidine-3-carboxamide]", "values": [
      {"measurement": "IC50", "setting": "[1]; T-cell", "result": 122, "unit": "nM"},
      {"measurement": "IC50", "setting": "[2]", "result": 80, "unit": "nM"}
    ]},
    {"smiles": "CC1CCc2c(cnc3cc(Cl)nn23)N1c1ccc([C@H](N(C)C(=O)C2CCS(=O)(=O)CC2)C(F)(F)F)cc1", "note": "(stereo partly drawn) [CPD0072805, N-[(1S)-1-{4-[(11rel-S)-4-chloro-11-methyl-2,3,7,10-tetraazatricyclo[7.4.0.0^2,6]trideca-1(9),3,5,7-tetraen-10-yl]phenyl}-2,2,2-trifluoroethyl]-N-methyl-1,1-dioxo-1λ^6-thiane-4-carboxamide]", "values": [
      {"measurement": "IC50", "setting": "[1]", "result": 1020, "unit": "nM"},
      {"measurement": "IC50", "setting": "[2]", "result": 172, "unit": "nM"}
    ]},
    {"smiles": "CN(C(=O)C1COC1)[C@@H](c1ccc(N2CCCc3c2cnc2cc(Cl)nn32)cc1)C(F)(F)F", "note": "[CPD0073083, N-[(1S)-1-(4-{4-chloro-2,3,7,10-tetraazatricyclo[7.4.0.0^2,6]trideca-1(9),3,5,7-tetraen-10-yl}phenyl)-2,2,2-trifluoroethyl]-N-methyloxetane-3-carboxamide]", "values": [
      {"measurement": "IC50", "setting": "[1]; T-cell", "result": 146, "unit": "nM"},
      {"measurement": "IC50", "setting": "[2]", "result": 90, "unit": "nM"}
    ]}
  ]
}
